Series [1] concerns cutaneous trunci muscle reflex (CTMR). As to the kind of experiment: Noxious pinprick test of the cutaneous trunci muscle reflex after subcutaneous injection. Format: in vivo. The note with it: rat; for time of complete recovery (CRT): s.c. 0.6 ml, mean ± SE, n=8. The procedure:
Subcutaneous Injection The animal experimental protocol was approved by the Animal Committee of Mackay Memorial Hospital in Taipei, Taiwan. Male Sprague-Dawley rats were purchased from BioLasco (Taipei, Taiwan) and kept in an air-conditioned animal shelter at room temperature of 22° C. to 24° C. with controlled level of humidity (40% to 50%) in a 12-hour light-dark cycle. […] The rats were randomly assigned to treatments with a size of 8 rats per group. All rats were briefly anesthetized by inhalation of 2% isoflurane (Abbott Laboratories, North Chicago, Ill.). The back of each rat was carefully shaved with a razor and was left with no injuries. After the induction of inhalation anesthesia, the drugs were injected subcutaneously in the thoracolumbar region. The injections caused a circular elevation of the skin, creating a wheal of approximately 2 cm in diameter. This wheal was marked within a minute after the injection.
Neurobehavioral Examination Before the experiments were conducted, the animals were handled daily for up to 14 days to familiarize them with the behavioral investigator, the experimental environment, and the specific experimental protocols. A noxious pinprick test was used to measure the analgesic effect of the cutaneous trunci muscle reflex (CTMR), which is characterized by reflex movements of the skin over the back produced by twitches of the lateral thoracispinal muscles in response to local dorsal cutaneous stimulations. The von Frey filament (26.0 g) was affixed to an 18-gauge needle to standardize the stimulus intensity and to test the neurobehavioral examination. Six pinpricks were applied in the marked areas every 15 minutes after each drug administration until the rats were fully recovered from the block. Six pinpricks per test were sufficient enough to obtain reproducible results in rats among different study groups, while avoiding injury of the skin during repeated testing. […] The total absence of CTMR response was defined as a complete blockade with 100% of maximum possible effect (MPE). Three CTMR pinprick responses indicated a 50% of MPE, while 0% of observed MPE would show the presence of all six CTMR pinprick responses. The complete recovery time (CRT) is defined as the time period when the presence of all six pinprick responses returned with 0% of MPE. All CTMR responses observed in rats were under stable vital signs. To determine skin irritation (such as necrosis, swelling and inflammation), assessment in any macroscopic changes of the skin color and texture was further studied. Systemic side effects such as sedation, agitation, and respiratory distress were also evaluated. The observer was not informed about the drugs used.
Statistical Analysis The statistical difference between the treatment groups was tested by using Mann-Whitney Rank Sum Test to evaluate the analgesic degree of MPE. Microcal Origin version 7 (Microcal Software, Northampton, Mass.) and SigmaStat (Systat Software, Inc., Chicago, Ill.) were used to calculate the values of MPE, creating figures and analyzing statistics. A p value of less than 0.05 was defined significant. All data are presented as mean±SE.

The next series relates to subcutaneous tissue. The note with it: rat, in vivo, sc. The procedure: Histology To determine the toxicity of the present composition to the subcutaneous tissue, skin was excised from the injected area of anesthetized rats two days later. The skin cross-section samples were fixed in 4% paraformaldehyde overnight and stained with hematoxylin and eosin.
Tissue inflammation was evaluated by the level of lymphocytic infiltrations in the cinnamaldehyde-injected subcutaneous layer of rats' cross-sectioned skin at 48 h.

The next series has as its system skin. The note with it: rat, in vivo, sc. The procedure:
Neurobehavioral Examination Before the experiments were conducted, the animals were handled daily for up to 14 days to familiarize them with the behavioral investigator, the experimental environment, and the specific experimental protocols. A noxious pinprick test was used to measure the analgesic effect of the cutaneous trunci muscle reflex (CTMR), which is characterized by reflex movements of the skin over the back produced by twitches of the lateral thoracispinal muscles in response to local dorsal cutaneous stimulations. […] Three CTMR pinprick responses indicated a 50% of MPE, while 0% of observed MPE would show the presence of all six CTMR pinprick responses. The complete recovery time (CRT) is defined as the time period when the presence of all six pinprick responses returned with 0% of MPE. […] To determine skin irritation (such as necrosis, swelling and inflammation), assessment in any macroscopic changes of the skin color and texture was further studied. Systemic side effects such as sedation, agitation, and respiratory distress were also evaluated. The observer was not informed about the drugs used.

Setting [2] is: cinnamaldehyde 0.5% alone, or given 10 min before lidocaine 0.5% / bupivacaine 0.0625%.
Where [3] appears, read: cinnamaldehyde 1% alone, or given 10 min before lidocaine 0.5% / bupivacaine 0.0625%.
Where [4] appears, read: cinnamaldehyde 2% alone, or given 10 min before lidocaine 0.5% / bupivacaine 0.0625%.

This is an account of results in patent publication US20130172387A1, “METHOD AND COMPOSITION FOR PROLONGING ANALGESIC EFFECT OF LOCAL ANESTHETIC” (priority 2011, published 2013).

Several values for one entry are separate records, joined by “and”; a condition that tells them apart may be missing. Equal values may be shown once.

As for `CCN(CC)CC(=O)Nc1c(C)cccc1C` [Lidocaine, 2-(diethylamino)-N-(2,6-dimethylphenyl)acetamide], the “time of complete recovery (CRT)” value was 65.63 ± 2.74 min and 65.63 min in series [1] (setting [2]); 106.88 ± 3.40 min and 106.88 min in series [1] (setting [3]); 157.50 ± 5.67 min and 157.50 min in series [1] (setting [4]). Moreover, in series [1] (s.c., 2% cinnamaldehyde followed 10 min later by 0.5% lidocaine), the “duration of complete nociceptive block to pinpricks” value was “about 15 minutes”. In addition, the “analgesic effect, dose dependence” value in series [1] (s.c., cinnamaldehyde 0.5%, 1%, 2% followed by 0.5% lidocaine) is on record as “Dose dependent analgesic effect”.
Regarding `O=CC=Cc1ccccc1` [Cinnamaldehyde, cinnamaldehyde], the “lymphocytic infiltration (tissue inflammation) in subcutaneous layer” value in the series on subcutaneous tissue is on record as “More lymphocytic infiltrations”. Also, in the series on skin, the skin irritation entry is on record as “neither obvious change of skin color nor injury was observed”. Besides, the “time of complete recovery (CRT)” value in series [1] (setting [2]) is 43.13 ± 5.97 min and 43.13 min; in series [1] (setting [3]), 63.75 ± 4.70 min and 63.75 min; in series [1] (setting [4]) it was 95.63 ± 3.95 min and 95.63 min. Besides, in series [1] (s.c., cinnamaldehyde alone at 0.5%, 1% and 2%), the “analgesic effect, dose dependence” value is “dose-dependent analgesic effect”.
In the case of `CCCCN1CCCCC1C(=O)Nc1c(C)cccc1C` (centres unmarked) [Bupivacaine, 1-butyl-N-(2,6-dimethylphenyl)piperidine-2-carboxamide], the “time of complete recovery (CRT)” value in series [1] (cinnamaldehyde 0% (vehicle): lidocaine 0.5% or bupivacaine 0.0625% alone) was 91.88 ± 4.43 min and 91.88 min; in series [1] (setting [2]), 78.75 min; in series [1] (setting [3]) it was 116.25 ± 4.70 min and 116.25 min; in series [1] (setting [4]) it was 159.38 ± 6.30 min and 159.38 min. Further, in series [1] (s.c., bupivacaine 0.0625% alone), the “duration of complete nociceptive block” value is recorded as “approximately 45 minutes”. The “complete nociceptive block to pinpricks” value in series [1] (s.c., cinnamaldehyde 0.5%, 1%, 2% followed 10 min later by bupivacaine 0.0625%) is recorded as “increased”.
